Data taken from US20070015723A1, “Antiviral oligonucleotides having a conserved G4 core sequence” (priority 1992, published 2007).
Where “and” joins values, the source holds several entries; their conditions need not be identical. Equal values may be shown once.

Columns and labels:
[1] = system: CEM cell line; test: Cytotoxicity (TC50) alongside acute HIV infection assay
[2] = system: HSV-1 (KOS); test: HSV-1 infection ELISA assay; type: cell-based; conditions: 50% inhibition of HSV replication relative to control infected cells; Table 1
[3] = system: HIV-1IIIB; test: Acute HIV infection assay (XTT, CEM cells); conditions: for IC50: inhibition of HIV
[4] = system: influenza strain A/NWS/33 (H1N1); type: cell-based, influenza virus
[5] = system: respiratory syncytial virus (RSV) strain Long; type: cell-based
[6] = system: Adenovirus, Type 5 (A-5), strain Adenoid 75; type: cell-based
[7] = system: HIV; type: cell-based
[8] = system: HSV-1 (KOS); test: HSV-1 virus yield assay; type: cell-based; conditions: FIG. 2
[9] = system: varicella zoster virus; type: cell-based
[10] = system: rhinovirus 2 (R-2), strain HGP; type: cell-based, human rhinovirus
[11] = system: HSV-2 strain E194; type: cell-based

Substance: ISIS 4721: CAC GGG GTC G, P = S, SEQ ID NO 32 (CACGGGGTCG; all phosphorothioate, sugars by position and methylation of C not given here)
- TC50 [1]: 142000 nM
- EC50 [2]: 400 nM
- TI (TC50/IC50) [3]: 546
- IC50 [3]: 210 nM and 260 nM

Substance: ISIS 5652: TT GGGG TT GGGG TT GGGG TT, P = S, SEQ ID NO 37 (TTGGGGTTGGGGTTGGGGTT; all phosphorothioate, sugars by position not given here)
- ED50 [4]: 600 nM
- TI [4]: 93
- ED50 [5]: 1900 nM
- TI [5]: >53
- ED50 [6]: >100000 nM
- TI [6]: <1.0
- ED50 [7]: 180 nM
- TI [7]: 227
- anti-HSV activity in virus yield assay [8]: dose-dependent anti-HSV activity
- ED50 [9]: 18000 nM
- EC50 [2]: 160 nM
- TI (TC50/IC50) [3]: 227
- IC50 [3]: 100 nM and 180 nM
- ED50 [10]: >100000 nM
- ED50 [11]: 300 nM
- TI [11]: >333
